The text below walks through data of ChEMBL document CHEMBL1201862, “PubChem BioAssay data set” (2004).

Structures are written as SMILES. Activity calls are given as the source filed them.

Assay [1] deals with T1, Luciferin 4-monooxygenase (Photinus pyralis, UniProt P08659). The assay can be described thus: Counter Screen for Luciferase-based Assay Positives. [Related pubchem assays: 620, 618, 411 ].
The test system of assay [2] is HT-1080. The assay can be described thus: cytotoxicity in HT1080 fibrosarcoma cells, cell-based, fluorescence readout (AID 620). The assay is classed as functional. The following applies: Homo sapiens.
Assay [3] can be described thus: cytotoxicity in HEK-293T cells, dose response, cytotoxicity control for BCR NF-kB inhibitor project, luminescence, B-cell screen hits (AID 489021).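 Also: HEK-293T cells carrying an NF-kB luciferase reporter; cells exposed to compound for about 14 hours before viability readout.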 The format is functional, cell-based.
The target in assay [4] is Glyceraldehyde-3-phosphate dehydrogenase (Homo sapiens, UniProt P04406).
Glyceraldehyde-3-phosphate dehydrogenase, sequence (P04406 whole entry): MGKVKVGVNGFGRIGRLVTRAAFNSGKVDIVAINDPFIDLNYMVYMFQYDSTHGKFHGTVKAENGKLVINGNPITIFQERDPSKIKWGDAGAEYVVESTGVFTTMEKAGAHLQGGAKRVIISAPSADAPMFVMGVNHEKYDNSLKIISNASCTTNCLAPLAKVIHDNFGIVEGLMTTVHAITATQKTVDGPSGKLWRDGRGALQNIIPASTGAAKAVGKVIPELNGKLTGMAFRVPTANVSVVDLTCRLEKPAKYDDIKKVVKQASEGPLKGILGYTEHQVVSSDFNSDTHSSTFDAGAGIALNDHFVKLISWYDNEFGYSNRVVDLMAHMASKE
The nature of assay [5]: cells.
Assay [6] addresses DNA dC->dU-editing enzyme APOBEC-3G (Homo sapiens, UniProt Q9HC16). The assay can be described thus: Dose Response confirmation of small molecule APOBEC3G DNA Deaminase Inhibitors via a fluorescence-based single-stranded DNA deaminase assay. [Related pubchem assays (depositor defined):AID493012, AID493028]. The format is functional.
For assay [7], the target named is DNA dC->dU-editing enzyme APOBEC-3A (Homo sapiens, UniProt P31941). The assay can be described thus: APOBEC3A DNA deaminase inhibitors, dose response, biochemical (AID 504722). The assay is classed as functional.
DNA dC->dU-editing enzyme APOBEC-3A, sequence (P31941 whole entry): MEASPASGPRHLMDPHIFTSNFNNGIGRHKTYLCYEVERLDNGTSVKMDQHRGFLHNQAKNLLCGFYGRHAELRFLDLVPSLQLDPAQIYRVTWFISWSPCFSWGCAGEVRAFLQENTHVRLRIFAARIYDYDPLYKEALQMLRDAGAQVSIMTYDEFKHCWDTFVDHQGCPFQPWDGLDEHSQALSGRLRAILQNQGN
Assay [8] concerns the target T2, Heat shock factor protein 1 (Mus musculus, UniProt P38532).
T2 sequence (P38532 whole entry): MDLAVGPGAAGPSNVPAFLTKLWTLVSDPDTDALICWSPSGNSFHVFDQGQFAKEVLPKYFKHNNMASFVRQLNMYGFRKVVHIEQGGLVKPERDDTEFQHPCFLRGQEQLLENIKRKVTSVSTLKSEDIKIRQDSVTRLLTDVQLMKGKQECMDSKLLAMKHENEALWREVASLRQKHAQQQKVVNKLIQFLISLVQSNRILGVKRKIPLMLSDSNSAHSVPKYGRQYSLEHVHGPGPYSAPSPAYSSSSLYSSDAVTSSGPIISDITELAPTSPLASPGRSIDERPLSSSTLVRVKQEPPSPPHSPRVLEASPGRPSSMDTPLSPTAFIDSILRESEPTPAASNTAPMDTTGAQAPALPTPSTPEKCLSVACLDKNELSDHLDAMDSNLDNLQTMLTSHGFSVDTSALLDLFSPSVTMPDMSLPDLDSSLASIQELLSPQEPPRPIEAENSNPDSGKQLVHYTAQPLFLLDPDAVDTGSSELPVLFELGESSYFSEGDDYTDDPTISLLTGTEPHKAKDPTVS
The assay can be described thus: inhibition of MG132-induced HSE-luciferase signal, confirmation, cell-based, NIH3T3, luminescence, dose retest (AID 2382).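 Also: NIH3T3 fibroblasts with HSF1-driven luciferase reporter stressed by proteasome inhibitor MG132; luminescence from HSF1-driven luciferase expression after 8 hours of MG132 stress.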 The format is functional.

A short description of assay [9]: off-target signal loss in HeLa-CEM21 co-culture – HeLa F-luc CTL cells, cherry-picked, counter-screen for HIV-1 Env fusion inhibitor project, dose response (AID 652040).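 Also: potency for signal decrease marking cytotoxic or nonspecific inhibition.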 The assay is classed as functional, cell-based.
Assay [10] can be described thus: inhibitors of firefly luciferase expression or activity, dose response, H4 neuroglioma cells, luminescence (AID 1990). The assay is classed as functional, cell-based.
Assay [11] in a line: inhibitors of SNCA 5'UTR-driven reporter translation, confirmation, H4 neuroglioma cells, luminescence (AID 1988). The format is functional, cell-based.
A short description of assay [12]: Luminescence Cell-Based Dose Response HTS to Identify Inhibitors of 5'UTR Stem-Loop Driven Prion Protein mRNA Translation in H4 Neuroglioblastoma Cells. [Related pubchem assays: 1827 (Project Summary), 1813 (Primary HTS)]. The assay is classed as functional.
Assay [13] addresses T3, Corticotropin-releasing factor receptor 2/Corticotropin-releasing factor-binding protein (Homo sapiens, UniProt P24387+Q13324).
T3 sequence (Q13324 whole entry): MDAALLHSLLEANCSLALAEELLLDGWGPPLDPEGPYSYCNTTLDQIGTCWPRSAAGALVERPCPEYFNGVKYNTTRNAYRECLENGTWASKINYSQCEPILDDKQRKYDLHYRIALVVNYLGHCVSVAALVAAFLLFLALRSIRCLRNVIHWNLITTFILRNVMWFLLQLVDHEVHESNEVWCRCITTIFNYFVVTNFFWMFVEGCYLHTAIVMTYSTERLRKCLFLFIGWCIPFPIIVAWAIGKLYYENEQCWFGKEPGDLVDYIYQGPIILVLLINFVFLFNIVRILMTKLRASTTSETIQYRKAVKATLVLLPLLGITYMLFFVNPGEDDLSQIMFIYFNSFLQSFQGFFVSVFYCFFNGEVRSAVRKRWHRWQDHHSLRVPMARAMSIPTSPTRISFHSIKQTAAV
T3 sequence (P24387 whole entry): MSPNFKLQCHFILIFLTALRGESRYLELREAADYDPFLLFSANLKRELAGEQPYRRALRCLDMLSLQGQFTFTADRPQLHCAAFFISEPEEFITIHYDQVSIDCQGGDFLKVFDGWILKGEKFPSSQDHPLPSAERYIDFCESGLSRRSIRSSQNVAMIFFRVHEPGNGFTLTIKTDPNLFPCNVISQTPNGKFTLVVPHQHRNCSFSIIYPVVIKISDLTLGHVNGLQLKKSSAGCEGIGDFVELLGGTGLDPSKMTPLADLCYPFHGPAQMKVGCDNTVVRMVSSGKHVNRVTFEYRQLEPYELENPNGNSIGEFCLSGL
The assay can be described thus: activators of CRF receptor 2 with binding protein – uHTS hits, confirmation (AID 602473). The settings on record: read-out: EC50_Mean. The assay is classed as functional.

Assay [14] deals with T3, Corticotropin-releasing factor receptor 2/Corticotropin-releasing factor-binding protein. The assay can be described thus: Dose Response confirmation of uHTS hits for small molecule antagonists of the CRF-binding protein and CRF-R2 receptor complex. The format is functional. The settings on record: read-out: IC50_Mean.
In assay [15] the target is Glucose-6-phosphate 1-dehydrogenase (Homo sapiens, UniProt P11413). The assay can be described thus: human G6PD enzyme inhibitors, dose response, selectivity assay for P. falciparum G6PD inhibitor project, biochemical, fluorescence (AID 504792). The assay is classed as functional.
Glucose-6-phosphate 1-dehydrogenase, sequence (P11413 whole entry): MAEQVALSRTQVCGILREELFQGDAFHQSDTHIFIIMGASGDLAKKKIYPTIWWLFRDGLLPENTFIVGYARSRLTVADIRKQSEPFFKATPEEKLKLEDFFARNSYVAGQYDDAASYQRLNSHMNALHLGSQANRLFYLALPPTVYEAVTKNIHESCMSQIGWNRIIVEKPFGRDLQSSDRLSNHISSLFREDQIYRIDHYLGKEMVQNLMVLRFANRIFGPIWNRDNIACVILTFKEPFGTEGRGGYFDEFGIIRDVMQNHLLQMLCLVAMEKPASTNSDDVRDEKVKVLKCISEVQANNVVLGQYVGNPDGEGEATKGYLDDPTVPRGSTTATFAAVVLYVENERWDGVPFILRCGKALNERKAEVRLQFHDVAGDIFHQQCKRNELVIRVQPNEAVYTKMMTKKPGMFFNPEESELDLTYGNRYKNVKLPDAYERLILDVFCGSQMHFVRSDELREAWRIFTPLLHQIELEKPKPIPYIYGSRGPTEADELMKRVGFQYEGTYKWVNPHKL
Assay [16] addresses T1, Luciferin 4-monooxygenase. The assay can be described thus: firefly luciferase enzyme inhibitors, dose response, biochemical, luminescence (AID 1891).
Assay [17] has as its target T4, Short transient receptor potential channel 4 (Mus musculus, UniProt Q9QUQ5).
T4 sequence (Q9QUQ5 whole entry): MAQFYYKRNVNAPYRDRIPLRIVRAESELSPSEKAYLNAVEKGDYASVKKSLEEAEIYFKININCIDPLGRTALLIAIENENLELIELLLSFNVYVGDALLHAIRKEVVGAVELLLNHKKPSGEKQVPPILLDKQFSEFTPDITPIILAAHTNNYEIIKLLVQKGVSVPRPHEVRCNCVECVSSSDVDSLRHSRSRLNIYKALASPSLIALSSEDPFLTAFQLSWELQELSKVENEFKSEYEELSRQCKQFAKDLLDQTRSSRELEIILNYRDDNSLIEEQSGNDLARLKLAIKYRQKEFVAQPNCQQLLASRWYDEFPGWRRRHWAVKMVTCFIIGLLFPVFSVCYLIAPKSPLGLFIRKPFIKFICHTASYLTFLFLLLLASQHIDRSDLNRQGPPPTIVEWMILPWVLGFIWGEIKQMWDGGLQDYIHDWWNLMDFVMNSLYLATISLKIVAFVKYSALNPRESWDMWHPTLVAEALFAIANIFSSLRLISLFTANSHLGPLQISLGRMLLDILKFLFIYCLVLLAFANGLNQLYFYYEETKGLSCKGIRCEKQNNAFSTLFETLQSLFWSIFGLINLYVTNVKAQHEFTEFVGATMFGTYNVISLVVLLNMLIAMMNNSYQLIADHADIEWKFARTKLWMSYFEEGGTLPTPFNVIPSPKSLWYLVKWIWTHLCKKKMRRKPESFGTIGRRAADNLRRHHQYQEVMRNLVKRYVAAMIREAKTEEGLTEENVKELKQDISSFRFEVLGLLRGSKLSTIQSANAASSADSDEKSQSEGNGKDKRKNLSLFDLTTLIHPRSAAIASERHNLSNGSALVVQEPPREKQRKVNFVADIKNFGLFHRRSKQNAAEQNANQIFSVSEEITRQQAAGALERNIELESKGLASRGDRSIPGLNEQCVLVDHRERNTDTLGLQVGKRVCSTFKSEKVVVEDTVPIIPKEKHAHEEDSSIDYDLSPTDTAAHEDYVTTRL
The assay can be described thus: mouse TRPC4 channel inhibitors, dose response, cell-based, HEK293 TRPC4/mu-opioid, Fluo-4 calcium (AID 434942).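 Also: potency of inhibitors blocking the TRPC4 calcium response.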 The format is functional.

The nature of assay [18]: HEp-2 cell cytotoxicity, dose response, cytotoxicity control for RSV inhibitor project, HTS (AID 2410). The assay is classed as functional. The following applies: human respiratory syncytial virus.
For assay [19], the target named is Eukaryotic translation initiation factor 4E (Mus musculus, UniProt P63073). The assay can be described thus: eIF4E–eIF4G protein interaction inhibitors, dose response, biochemical, TR-FRET (AID 855).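 Also: potency for disrupting eIF4E binding to eIF4GI seen as loss of FRET.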 The assay is classed as functional.
Eukaryotic translation initiation factor 4E, sequence (P63073 whole entry): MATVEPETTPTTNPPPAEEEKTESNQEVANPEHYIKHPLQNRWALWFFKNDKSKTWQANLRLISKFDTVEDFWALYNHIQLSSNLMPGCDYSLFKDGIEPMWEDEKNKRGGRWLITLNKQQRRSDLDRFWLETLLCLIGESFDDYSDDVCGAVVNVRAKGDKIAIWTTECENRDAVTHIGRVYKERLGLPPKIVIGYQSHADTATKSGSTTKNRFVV
Assay [20] addresses Induced myeloid leukemia cell differentiation protein Mcl-1 (Homo sapiens, UniProt Q07820). The assay is classed as functional.
Assay [21] can be described thus: P. falciparum 3D7-ScDHODH growth inhibitors, dose response, SYBR Green, dry powder samples (AID 1159570).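 Also: parasite growth measured after 72 hours of compound exposure.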 The assay is classed as functional, cell-based.
Assay [22] is described as follows: P. falciparum Dd2 growth inhibitors, dose response, SYBR Green, dry powder samples (AID 1159566).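 Also: potency for growth inhibition with lower SYBR green DNA signal.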 The assay is classed as functional, cell-based.
Assay [23] in a line: P. falciparum Dd2 growth inhibitors, dose response, SYBR Green, cherry-picked samples (AID 1159567). The assay is classed as functional, cell-based.
The nature of assay [24]: P. falciparum ATP4 D1247Y mutant growth inhibitors, dose response, NITD609-resistant line, SYBR Green, dry powder (AID 1159571).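 Also: parasites synchronized at ring stage by sorbitol before testing.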 The assay is classed as functional, cell-based.

DNA dC->dU-editing enzyme APOBEC-3G, sequence (Q9HC16 whole entry): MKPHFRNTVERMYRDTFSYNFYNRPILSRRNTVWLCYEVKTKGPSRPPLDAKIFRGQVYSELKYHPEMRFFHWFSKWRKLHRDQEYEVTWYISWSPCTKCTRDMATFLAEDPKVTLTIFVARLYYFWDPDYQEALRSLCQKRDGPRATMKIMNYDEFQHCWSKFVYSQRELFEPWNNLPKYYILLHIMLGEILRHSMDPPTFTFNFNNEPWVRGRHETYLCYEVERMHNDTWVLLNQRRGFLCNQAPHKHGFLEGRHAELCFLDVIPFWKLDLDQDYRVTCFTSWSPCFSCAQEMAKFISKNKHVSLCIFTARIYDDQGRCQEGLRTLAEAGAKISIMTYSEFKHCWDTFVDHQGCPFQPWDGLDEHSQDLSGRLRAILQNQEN
T1 sequence (P08659 whole entry): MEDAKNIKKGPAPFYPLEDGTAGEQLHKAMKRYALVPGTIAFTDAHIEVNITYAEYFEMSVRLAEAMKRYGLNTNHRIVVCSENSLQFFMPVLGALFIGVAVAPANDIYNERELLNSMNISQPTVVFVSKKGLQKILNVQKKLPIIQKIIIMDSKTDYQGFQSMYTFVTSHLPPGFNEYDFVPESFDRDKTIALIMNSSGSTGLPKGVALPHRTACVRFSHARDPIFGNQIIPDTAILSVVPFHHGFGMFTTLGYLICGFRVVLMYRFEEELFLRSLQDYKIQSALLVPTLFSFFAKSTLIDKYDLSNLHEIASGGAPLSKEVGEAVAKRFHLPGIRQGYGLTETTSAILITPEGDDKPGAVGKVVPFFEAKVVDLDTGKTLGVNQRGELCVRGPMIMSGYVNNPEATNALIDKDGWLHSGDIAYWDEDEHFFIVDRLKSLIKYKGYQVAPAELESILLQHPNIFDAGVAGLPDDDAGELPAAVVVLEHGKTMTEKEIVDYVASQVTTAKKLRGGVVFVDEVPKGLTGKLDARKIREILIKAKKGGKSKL
Induced myeloid leukemia cell differentiation protein Mcl-1, sequence (Q07820 whole entry): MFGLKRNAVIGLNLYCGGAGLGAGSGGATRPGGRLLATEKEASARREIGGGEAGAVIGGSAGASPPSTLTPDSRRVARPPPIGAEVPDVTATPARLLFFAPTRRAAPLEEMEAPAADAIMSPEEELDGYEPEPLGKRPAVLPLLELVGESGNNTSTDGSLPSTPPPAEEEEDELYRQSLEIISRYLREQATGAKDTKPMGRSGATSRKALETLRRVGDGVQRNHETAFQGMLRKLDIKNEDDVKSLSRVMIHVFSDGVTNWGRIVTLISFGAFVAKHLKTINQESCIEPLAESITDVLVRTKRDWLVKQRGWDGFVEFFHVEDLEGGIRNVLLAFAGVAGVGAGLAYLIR

As to `Cc1ccoc1C(=O)Nc1ccc(CC(=O)O)cc1`, the EC50 in assay [1] is 1.12 µM (active); in [2], > 50 µM (not active). Further, the IC50 is > 80 µM (inactive) in [3] and > 100 µM (not active) in assay [4].

With `COCCn1c(-c2ccc(Cl)cc2Cl)nc2c(c(=O)c3ccccc3n2C)c1=O`, in assay [5], the IC50 was > 50 µM (active).

In the case of `CC1(C)Cc2ccccc2-c2n[nH]c(=S)n21`, the results for the IC50 in assay [6] and in assay [7] were 4.33 µM (active) and > 100 µM (inactive), respectively. In assay [8], the EC50 was > 195 µM (not active).

For the molecule `COc1ccc(OC)c(-c2cc(C(=O)Nc3c(C)nn(Cc4ccc(Cl)cc4)c3C)no2)c1`, the AC50 in assay [9] is > 70 µM (inactive). Moreover, the EC50 in assay [10] was 13.6 µM (active); in assay [11] it was 13.9 µM (active); in assay [12], 19.5 µM (active).

`COc1ccnc(CSC(=N)Nc2ccc(F)cc2)c1`: the EC50 in assay [13] is 32 µM (active). In addition, the IC50 in assay [14] was > 47.1 µM (inactive).

Take `CCOC(=O)c1c(N)sc(C(=O)N2CCCCC2)c1C`: in assay [13], the EC50 was > 53 µM (inactive). In addition, the IC50 in [14] was > 47.1 µM (inactive).

Turning to `Cc1[nH]c(=S)c(C#N)c(C)c1CCC#N`, the IC50 in assay [15] was > 80 µM (inactive); in [6], 9.7 µM (active); in assay [7], > 100 µM (inactive). The EC50 in [16] was > 112 µM (not active).

As for `Cc1nn(-c2cccc(Cl)c2)c2nc(C(F)(F)F)[nH]c(=O)c12`, the EC50 in assay [17] is 3.35 µM (active); in assay [13] it was > 53 µM (inactive). Moreover, the IC50 in assay [14] was 2.6 µM (active).

For the molecule `O=C(Nc1cccc(S(=O)(=O)Nc2ccccc2F)c1)c1ccc2ccccc2n1`, the IC50 in assay [6] was 15.6 µM (active); in assay [7], > 100 µM (inactive).

Take `CCOC(=O)C1(Cc2cccc(OC)c2)CCN(Cc2cccn2-c2nccs2)CC1`: the CC50 in assay [18] was > 50 µM (active). For the same molecule, the IC50 in [5] was 10.2 µM (active).

As for `CCNC(=O)C1=C(O)c2sccc2N(C)S1(=O)=O`, in assay [19], the IC50 is 50 µM (inactive).

In the case of `Fc1cccc(-c2n[nH]c(=S)n2-c2ccccc2)c1`, the IC50 is 4.26 µM (active) in assay [6] and > 100 µM (inactive) in [7].

`Cc1cc(C)nc(NC(=N)Nc2ccc(CC(=O)OC(C)C)cc2)n1`: in [9], the AC50 was 22.1 µM (active).

In the case of `CC(C)C(=O)Nc1ccc(-c2nc3cccnc3o2)cc1`, the results for the EC50 in [1] and in assay [2] were < 0.2 µM (active) and > 50 µM (not active), respectively.

Take `O=C1NC(c2ccc3c(c2)OCO3)Oc2ccccc21` (stereo unspecified): in [19], the IC50 is > 64 µM (inactive).

For `Cc1ccccc1CC1(CO)CCCN(Cc2c(C)nn(C)c2Cl)C1` (stereo unspecified), in assay [18], the CC50 was 49.4 µM (active). Moreover, the IC50 in [5] is 7.18 µM (active).

As for `O=C(N/N=C/c1ccc(O)cc1)c1cccc(N/N=C/c2ccc(O)cc2)c1`, in assay [20], the IC50 was 6.06 µM (active).

For the molecule `C[C@@H]1CN([C@@H](C)CO)C(=O)c2cccc(NC(=O)c3ccc(-c4nccs4)cc3)c2O[C@H]1CN(C)Cc1ccc(Cl)c(Cl)c1`, the AC50 in [21] was 1.25 µM (active); in [22], 0.922 µM (active); in assay [23], 1.7 µM (active); in [24], 0.692 µM (active).
